Experimental data: ChEMBL document CHEMBL2331177, “Pleurospiroketals A-E, perhydrobenzannulated 5,5-spiroketal sesquiterpenes from the edible mushroom Pleurotus cornucopiae” (J Nat Prod, 2013)

Assays:
[1] = tested on: RAW264.7; experiment: Inhibition of LPS-induced nitric oxide production in mouse RAW264.7 cells treated 1 hr before LPS challenge measured after 24 hrs by Griess reaction method; format: functional, cell-based
[2] = tested on: HeLa; experiment: Cytotoxicity against human HeLa cells after 72 hrs by MTT assay; format: functional, cell-based
[3] = tested on: RAW264.7; experiment: Cytotoxicity against mouse RAW264.7 cells at 100 uM; format: cell-based; settings: raw264.7, 100 µM

| SMILES | IC50 [1] [µM] | IC50 [2] [µM] | Activity [3] |
| --- | --- | --- | --- |
| C[C@]12CCC(=O)C=C1CC[C@@H]1[C@@H]2[C@@H](O)C[C@@]2(C)[C@H]1CC[C@]2(O)C(=O)CO [HYDROCORTISONE] | 53.8 |  |  |
| CC(=O)OCC1=C2CC[C@](C)(O)[C@H](O)[C@H]2O[C@@]12OC(C)(C)CC2=O [PLEUROSPIROKETAL C] | 20.8 | 18.8 | Non-toxic |
| C=C1[C@H]2CC[C@](C)(O)[C@H](O)[C@H]2O[C@@]12OC(C)(C)CC2=O [PLEUROSPIROKETAL A] | 6.8 | 20.6 | Non-toxic |
| C=C1[C@H]2CC[C@](C)(O)[C@H](O)[C@H]2O[C@]12OC(C)(C)CC2=O [PLEUROSPIROKETAL B] | 12.6 | 32.8 | Non-toxic |
